EP4796530A1 (Biocells (Beijing) Biotech Co., Ltd., priority 2023, dated 2025)

Experiments:
NLRP3 [1] = molecular target: NLRP3 (Mus musculus, UniProt Q8R4B8); experiment: LPS-induced sepsis model in mice: serum IL-1β and survival rate; format: in vivo, C57BL/6 mice; parameters: tissue National Institutes for Food and Drug Control; host or cells: C57BL/6J mice in vivo (serum IL-1β in A7, ascites IL-1β in A8); conditions: 30 mg/kg intraperitoneally 1 h before 20 mg/kg LPS
Method: Intraperitoneal injection of 20 mg/kg LPS can induce a septic state in C57BL/6 mice and cause a significant increase in serum IL-1β after injection. Example compounds were intraperitoneally injected preemptively to study the effects on IL-1β increase and mouse survival rate. LPS was purchased from Sigma, Cat. No. L2630; and C57BL/6J male mice aged 6-8 weeks were purchased from National Institutes for Food and Drug Control.
Experimental groups: a sham group, a model group, and an example compound dosing group.
30 mg/kg of example compounds were injected intraperitoneally. 1 h later, 20 mg/kg LPS was injected intraperitoneally into the model group and the example compound dosing group for modeling, and the control solvent was injected into the sham group. Serum samples were collected from a batch of mice at 2.5 h and 4 h after modeling, and the levels of IL-1β were analyzed. For another batch of mice, the survival rate of the mice was calculated after modeling.

NLRP3 [2] = molecular target: T1, NLRP3 (Homo sapiens, UniProt Q96P20); experiment: Inhibition curves (IC50) of canonical NLRP3 activation (LPS+Nig) in THP-1 cells, IL-1β release; format: cell-based; parameters: host or cells: THP-1 human acute monocytic leukemia cell line, PMA-differentiated; conditions: THP-1 cell LPS+Nig activation model
T1 sequence (Q96P20 whole entry): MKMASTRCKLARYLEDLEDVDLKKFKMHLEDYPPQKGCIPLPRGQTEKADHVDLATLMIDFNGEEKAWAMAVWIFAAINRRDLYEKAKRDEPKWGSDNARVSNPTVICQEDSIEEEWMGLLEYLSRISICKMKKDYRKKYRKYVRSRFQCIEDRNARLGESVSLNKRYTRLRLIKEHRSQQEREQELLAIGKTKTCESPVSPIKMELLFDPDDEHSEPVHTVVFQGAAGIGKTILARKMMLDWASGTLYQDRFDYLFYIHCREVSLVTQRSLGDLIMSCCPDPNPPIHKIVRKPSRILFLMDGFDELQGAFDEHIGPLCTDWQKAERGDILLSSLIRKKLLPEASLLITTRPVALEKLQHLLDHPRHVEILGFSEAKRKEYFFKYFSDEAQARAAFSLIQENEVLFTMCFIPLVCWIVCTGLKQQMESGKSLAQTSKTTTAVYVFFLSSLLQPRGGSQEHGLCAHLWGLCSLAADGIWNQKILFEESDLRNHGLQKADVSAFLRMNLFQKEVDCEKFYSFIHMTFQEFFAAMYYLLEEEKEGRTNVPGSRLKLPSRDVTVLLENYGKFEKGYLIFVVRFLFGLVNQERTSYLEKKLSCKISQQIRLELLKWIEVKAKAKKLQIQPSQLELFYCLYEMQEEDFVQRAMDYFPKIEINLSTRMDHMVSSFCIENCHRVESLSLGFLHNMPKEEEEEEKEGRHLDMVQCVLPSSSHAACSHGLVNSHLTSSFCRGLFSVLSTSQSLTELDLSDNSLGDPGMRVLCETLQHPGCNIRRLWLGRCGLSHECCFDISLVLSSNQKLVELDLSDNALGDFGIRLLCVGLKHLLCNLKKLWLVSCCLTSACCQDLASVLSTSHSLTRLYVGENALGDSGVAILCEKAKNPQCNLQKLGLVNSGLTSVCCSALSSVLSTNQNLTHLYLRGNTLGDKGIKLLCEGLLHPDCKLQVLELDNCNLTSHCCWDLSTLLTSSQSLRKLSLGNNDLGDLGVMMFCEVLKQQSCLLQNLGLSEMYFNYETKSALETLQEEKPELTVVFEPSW
Method: Nig was purchased from Shanghai Yuanye Bio-Technology Co., Ltd., Cat. No.: S45490.
The cells were incubated overnight.
Therefore, the relative change in the amount of IL-1β release may directly reflect NLRP3 inhibitory effect. The inhibitory effect of the compounds varies with different concentrations, and based on this, an inhibition curve can be constructed, and the inhibitory effects of the compounds were assessed by IC50.

NLRP3 [3] = molecular target: T1, NLRP3; experiment: Inhibition curves (IC50) of canonical NLRP3 activation in healthy human whole blood, IL-1β release; format: cell-based; conditions: LPS+5 µM Nig canonical activation model
Method: 10 mL of human whole blood was collected intravenously aseptically, and plated into a 96-well plate, with 198 µL per well. Then, 2 µL of 100× gradient dilutions of the example compounds at specified concentrations were added, immediately followed by the addition of 10 µL of 21 µg/mL LPS gradient dilution. 3 h later, nigericin with a working concentration of 5 µM or 1 mM ATP was added. After stimulation for 1 h, the whole blood was collected and centrifuged to collect the supernatant. IL-1β in the sample supernatant was detected by ELISA method.
Experimental groups: a negative control group, an LPS-alone incubation control group, an LPS+Nig/ATP positive control group, and a 1 µM example compound experimental group.
10 mL of human whole blood was collected intravenously aseptically. The anticoagulant heparin sodium was added preemptively into a 50 mL centrifuge tube. The collected whole blood was directly plated in a 96-well plate, with 198 µL per well. […] IL-1β in the sample supernatant was detected by ELISA method.
Therefore, the relative change in the amount of IL-1β release may directly reflect NLRP3 inhibitory effect. The inhibitory effect of the compounds varies with different concentrations, and based on this, an inhibition curve can be constructed, and the inhibitory effect of the compounds were assessed by IC50.

Chain of NLRP3 (Mus musculus, UniProt Q8R4B8) (Q8R4B8 whole entry): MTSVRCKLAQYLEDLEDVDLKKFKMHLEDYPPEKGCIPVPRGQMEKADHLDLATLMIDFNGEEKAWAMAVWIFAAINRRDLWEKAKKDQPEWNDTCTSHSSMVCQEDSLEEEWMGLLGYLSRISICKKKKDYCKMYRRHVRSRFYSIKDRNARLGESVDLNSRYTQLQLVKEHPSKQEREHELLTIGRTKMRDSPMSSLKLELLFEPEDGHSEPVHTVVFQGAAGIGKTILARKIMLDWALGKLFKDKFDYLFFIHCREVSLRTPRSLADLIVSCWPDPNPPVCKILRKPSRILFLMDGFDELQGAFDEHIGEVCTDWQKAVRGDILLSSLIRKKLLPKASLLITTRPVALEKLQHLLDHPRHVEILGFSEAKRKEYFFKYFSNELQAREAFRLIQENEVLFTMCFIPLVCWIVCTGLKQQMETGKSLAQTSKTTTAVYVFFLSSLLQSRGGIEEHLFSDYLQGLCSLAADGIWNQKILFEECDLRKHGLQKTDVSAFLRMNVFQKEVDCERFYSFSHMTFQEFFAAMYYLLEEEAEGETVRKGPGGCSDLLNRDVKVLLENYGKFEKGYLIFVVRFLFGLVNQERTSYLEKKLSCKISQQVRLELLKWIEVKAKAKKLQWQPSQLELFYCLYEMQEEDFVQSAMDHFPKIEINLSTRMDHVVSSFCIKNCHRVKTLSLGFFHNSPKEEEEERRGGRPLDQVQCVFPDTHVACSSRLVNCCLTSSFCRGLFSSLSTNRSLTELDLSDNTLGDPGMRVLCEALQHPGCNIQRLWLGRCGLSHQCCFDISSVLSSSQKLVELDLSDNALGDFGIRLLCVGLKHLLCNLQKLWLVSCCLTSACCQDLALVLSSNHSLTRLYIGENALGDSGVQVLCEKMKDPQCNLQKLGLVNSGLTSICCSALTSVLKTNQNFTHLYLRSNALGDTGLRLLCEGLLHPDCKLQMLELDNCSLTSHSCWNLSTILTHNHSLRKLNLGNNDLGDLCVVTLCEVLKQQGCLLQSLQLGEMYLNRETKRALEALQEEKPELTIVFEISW

CN(C)Cc1cccc(S(=O)(=O)NC(=O)Nc2c3c(cc4c2CCC4)CCC3)c1N [Example 19, 2-amino-3-((dimethylamino)methyl)-N-((1,2,3,5,6,7-hexahydro-s-indacen-4-yl)carbamoyl)benzenesulfonamide]
mouse survival rate compared with the model group (NLRP3 [1]): significantly improved | survival rate compared with MCC950 (NLRP3 [1]): significantly further improved | IL-1β level in serum compared with the model group (NLRP3 [1]; 2.5 h after modeling): significant differences | IL-1β level in serum compared with the model group (NLRP3 [1]; 4 h after modeling): significant differences | IC50 (NLRP3 [2]): 278 nM | IC50 (NLRP3 [3]): 1270 nM
